According to PMC12668289 (RSC Chemical Biology, 2025):
Where “and” joins values, the source holds several entries; their conditions need not be identical. Equal entries are not always repeated.

Columns and labels:
[1] = test system: Pmluc-WT; assay: BL emission spectra of luciferase-luciferin reactions; format: biochemical, Pyrocoelia miyako; conditions: 100 mM HEPES pH 8.0, 25 °C
Protocol: (§1) 1.5 Bioluminescence characterizations
(§2) Reactions of luciferases, including Photinus pyralis luciferase (Fluc), Phrixothrix hirtus luciferase (SLR), Pyrearinus termitilluminans […]
(§3) mM D-LH 2 analogues, 3 mM ATP, 6 mM MgCl2, and 10 µM luciferase in 0.2 ml of 100 mM HEPES-NaOH pH 8.0. The bioluminescence (BL) emission characteristics were recorded using a microplate reader in a BL mode (Thermo Scientific, Varioskan, LUX multimode). […]
sphere-based multichannel spectrometer with a charge-coupled device (CCD) detector. […]

[2] = biological target: Fluc (Photinus pyralis, UniProt P08659); assay: biochemical; format: binding; conditions: ITC; for G (free energy of binding) / H (enthalpy of binding): 25 °C; for Kd: Table S9
[3] = test system: Fluc (HepG2); assay: Sensitivity of live reporter cell detection (LOD of cell number); format: cell-based, human; conditions: 100 µM, 30 min
[4] = test system: SLR; assay: Steady-state kinetics of luciferase reactions (luminometer); format: biochemical, Phrixothrix hirtus; conditions: for Substrate inhibition: concentration range tested 0-300; for appKm: pH 8.0, 25 °C; for Relative kcat: relative to 2a compound
Protocol: as §1, §2, §3
BL of the
(§4) The reactions were initiated by mixing 25 µl of premixed solution of luciferases/D-LH 2 analogues with 125 µl of 3 mM ATP and 6 mM MgCl2 in 100 mM HEPES-NaOH (pH 8.0). The light intensity (relative light unit, RLU) during 0-300 sec was then collected to represent the overall luciferase activity which was further used for calculating kinetic parameters from the Michaelis-Menten equation. […]

[5] = test system: Pmluc-N230S; assay: as above; format: biochemical, Pyrocoelia miyako; parameters: Substrate inhibition: unit not given here; conditions: for appKm: pH 8.0, 25 °C; for Relative kcat: relative to 2a compound
Protocol: as §1, §2, §3
BL of the
as §4

[6] = test system: HepG2 cell line stably expressing a Fluc reporter; assay: BL spectra in live HepG2 cells stably expressing Fluc; format: cell-based, human; conditions: live HepG2, DMEM with 25 mM HEPES-NaOH pH 7.0, 37 °C, 100 µM
Protocol: mM purified luciferases into the reaction tube and the bioluminescence signals were monitored until it decayed to the background level.
The QY value was calculated from the measured total numbers of photon emission from the reaction of each D-LH 2 analogue with […]
1.6 Mammalian cell line culture and bioluminescence assays
Human embryotic kidney (HEK293T) cells, human hepatocyte carcinoma cancer (HepG2) cells, human cervical carcinoma (HeLa) cells, and Abelson leukemia virus-transformed cell line derived from BALB/c mice (RAW264.7) cells (American Type Culture Collection, USA) were grown in Dulbecco’s Modified Eagle Medium (DMEM) in low glucose supplemented with 10% (v/v) heat-inactivated fetal bovine serum (FBS) plus 1% (w/v) penicillin-streptomycin. Four types of cells were maintained at 37 °C with 5% CO2. For transient transfection, […]
supplemented with 10% (v/v) heat-inactivated FBS. Before transfection, the cultured medium was removed and added a fresh minimal essential medium with reduced amount of serum (opti-MEMTM) to each well. Cells were transfected by adding 0.07 pmol of pGL4.13 [luc2/SV40] as a target vector and 0.007 pmol of pRL-TK as a control vector using lipofectamineTM3000 (Thermo Fisher Scientific) in opti-MEMTM and lipofection. Cells were incubated for 5 h and then the supernatant medium was replaced by a fresh working DMEM medium.
Cells were harvested by washing with 500 μl PBS buffer (pH 7.4). The cells were detached […]
freezing-thawing process. […]
kept at -80 °C until used.
The 150 µl assay reaction was carried out in 150 µl 100 mM HEPES-NaOH (pH 8.0). The 25 µl […]
100 mM HEPES-NaOH (pH 8.0). Then, the RLU signals of each D-LH 2 and analogues were compared. […]
proteins) and a substrate cocktail reagent (3 mM ATP and 6 mM MgCl2 in 100 mM HEPES pH 8.0). The detection sensitivity of crude lysate of HEK293T expressing Fluc was determined by measuring RLU of the reaction with a luminometer with concentrations under the linearity […]
After the cells reached the highest BL intensity, the dish was recorded with a highly sensitive CCD […]

[7] = Absorption and fluorescence spectra of luciferins; format: physicochemical; conditions: 100 mM HEPES pH 8.0, 25 °C
Protocol: 2.6 Spectra of firefly luciferins
spectrophotometer (Agilent technologies, Cary 100 UV Vis, Cary Series UV-Vis Spectrophotometer).
were recorded by a microplate reader (Thermo Scientific, Varioskan, LUX multimode) in fluorescence mode. The reactions of D-LH 2 […]
Supplementary Table S5. […]
[e] ND denotes “not detectable”. […]

[8] = test system: SLR (HeLa); assay: Sensitivity of live reporter cell detection (LOD of cell number); format: cell-based, human
[9] = F2 (red filter, >620 nm long-pass)

Chain of Fluc (P08659 whole entry): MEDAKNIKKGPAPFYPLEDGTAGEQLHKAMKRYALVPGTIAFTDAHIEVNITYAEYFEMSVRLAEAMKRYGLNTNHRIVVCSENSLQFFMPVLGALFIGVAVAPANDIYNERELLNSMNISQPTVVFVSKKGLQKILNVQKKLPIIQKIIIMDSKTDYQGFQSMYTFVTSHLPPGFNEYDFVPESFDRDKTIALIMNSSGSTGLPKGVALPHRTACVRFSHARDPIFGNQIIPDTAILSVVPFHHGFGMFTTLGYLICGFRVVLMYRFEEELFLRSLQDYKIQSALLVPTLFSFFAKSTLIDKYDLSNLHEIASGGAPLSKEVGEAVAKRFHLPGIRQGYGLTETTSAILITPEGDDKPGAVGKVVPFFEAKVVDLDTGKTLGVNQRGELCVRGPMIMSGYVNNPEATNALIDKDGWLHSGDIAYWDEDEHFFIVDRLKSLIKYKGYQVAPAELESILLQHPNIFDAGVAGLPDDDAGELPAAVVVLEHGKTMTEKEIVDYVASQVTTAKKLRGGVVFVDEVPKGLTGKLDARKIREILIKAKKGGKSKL

SMILES	Bioluminescence wavelength (BLλ) [1] [nm]	N site [2]	Limit of detection (LOD), cells ([3]; F0 (no filter)) [cells]	Limit of detection (LOD), cells [3, 9] [cells]	Substrate inhibition [4] [µM]	appKm [4] [µM]	appKm ([5]; Pmluc-N230S) [µM]	BL spectrum peak in live cells [6] [nm]	Absorption (λmax) [7] [nm]	Fluorescence (λem) [7]	Limit of detection (LOD), cells ([8]; F0 (no filter)) [cells]	Limit of detection (LOD), cells ([8]; F2 (red filter)) [cells]	G (free energy of binding) [2] [kcal/mol]	H (enthalpy of binding) [2] [kcal/mol]	Kd [2] [µM]	Relative kcat [4]	Relative kcat (BL intensity), fold of 2a ([5]; Pmluc N230S, compared to 2a) [fold]	Substrate inhibition ([5]; Pmluc-N230S, concentration range tested 0-300)	Relative kcat ([5]; Pmluc-N230S)
O=C(O)[C@H]1CSC(c2nc3ccc(O)cc3s2)=N1 [Compound 2a, D-luciferin, reference compound]	554	1.00	601	897	> 4	0.5	0.6	604	327	543 nm and 523–560 nm	1352	1268							
Cc1cc2nc(C3=N[C@@H](C(=O)O)CS3)sc2cc1O [Compound 2b, 5’-methyl-D-luciferin]	608	0.70		795	> 14	0.7	1.8	609	323	523 nm and 523–560 nm	973	826	-6.70	-1.83	13.4	157.3	5.2	> 4.0	518.5
Cc1cc2nc(C3=N[C@@H](C(=O)O)CS3)sc2c(C)c1O [Compound 2c, 5’,7’-di-methyl-D-luciferin]	631	0.80	713		> 2.1	0.5	2.6	638	334	560 nm and 523–560 nm	1437	707	-6.08	-3.20	35.1	134.8			48.1
